Measured values reported in patent publication US20260055113A1, “HETEROARYL COMPOUNDS FOR THE TREATMENT OF CANCER” (Hoffmann-La Roche Inc., priority 2022, published 2026).

Assays:
[1] = Human microsomal stability assay; assay type: in vitro ADME; conditions: human liver microsomes 0.5 mg/mL, 1 μM test compound, 37° C., pH 7.4
Method: Human liver microsomes (Cat. NO.: 452117, Corning, USA) were preincubated with test compound for 10 minutes at 37° C. in 100 mM potassium phosphate buffer, pH 7.4. The reactions were initiated by adding NADPH regenerating system. The final incubation mixtures contained 1 μM test compound, 0.5 mg/mL liver microsomal protein, 1 mM MgCl2, 1 mM NADP, 1 unit/mL isocitric dehydrogenase and 6 mM isocitric acid in 100 mM potassium phosphate buffer, pH 7.4. After incubation times of 0, 3, 6, 9, 15 and 30 minutes at 37° C., 300 μL of cold ACN (including internal standard) was added to 100 μL incubation mixture to terminate the reaction. Following precipitation and centrifugation, 100 μL supernatant will be taken out and added 300 μL water. The amount of compound remaining in the samples was determined by LC-MS/MS. Controls of no NADPH regenerating system at zero and 30 minutes were also prepared and analyzed. The results were categorized as: low (<7.0 mL/min/kg), medium (7.0-16.2 mL/min/kg) and high (16.2-23.2 mL/min/kg).

[2] = biological target: T1, CD73 (Homo sapiens (Human), UniProt P21589); assay: CD73 cellular assay (MDA-MB-231 cells, malachite readout); assay type: cell-based; conditions: AMP substrate, 45 min, read-out: Cellular IC50 against CD73
Method: After incubating with compounds for 30 minutes, 40 μL of AMP working solution (200 μM AMP in assay buffer) was added into each well in the assay plate. The assay plate was then incubated in a 5% CO2 incubator (Thermo Fisher Scientific) at 37° C. for 45 min. After the reaction was completed, 50 μL of the supernatants was collected and transferred into a new 384 well plate. 10 μL of Malachite A was added to each well in the assay plate and incubated for 10 minutes. 10 μL of Malachite B was then added to each corresponding well of the plate and incubated for 30 minutes.
Target sequence in this assay (P21589 27-574): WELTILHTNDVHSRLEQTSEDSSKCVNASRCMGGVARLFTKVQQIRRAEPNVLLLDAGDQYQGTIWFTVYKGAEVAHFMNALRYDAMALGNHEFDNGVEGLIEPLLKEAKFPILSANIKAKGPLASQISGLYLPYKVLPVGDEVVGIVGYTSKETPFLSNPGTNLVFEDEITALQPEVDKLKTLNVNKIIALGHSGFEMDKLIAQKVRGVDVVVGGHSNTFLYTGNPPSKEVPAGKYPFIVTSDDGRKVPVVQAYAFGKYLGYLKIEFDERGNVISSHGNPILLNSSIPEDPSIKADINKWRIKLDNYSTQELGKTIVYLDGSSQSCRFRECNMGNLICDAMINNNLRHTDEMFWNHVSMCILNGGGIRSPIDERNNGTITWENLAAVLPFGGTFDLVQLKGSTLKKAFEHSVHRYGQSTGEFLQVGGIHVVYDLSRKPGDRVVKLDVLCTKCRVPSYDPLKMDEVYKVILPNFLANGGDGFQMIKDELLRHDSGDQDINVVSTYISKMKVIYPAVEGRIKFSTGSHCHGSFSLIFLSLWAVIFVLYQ

[3] = biological target: T1, CD73; assay: CD73 potency assay using LC/MS (enzymatic); assay type: biochemical; conditions: 0.05 nM recombinant CD73 protein, LC/MS adenosine readout; read-out: Enzymatic IC50 against CD73
Method: The purpose of this assay is to identify and characterize inhibitors of CD73 enzymatic activity. […] 10 μL of enzyme working solution (containing 0.05 nM recombinant CD73 protein, 10 mM Tris pH 7.5, 100 mM NaCl, 0.01% BSA, 0.2 mM Octyl glucoside) was added to the assay plate and incubated with compounds for 15 minutes at room temperature. After adding 15 μL of AMP working solution (Containing 10 mM Tris pH 7.5, 100 mM NaCl, 0.01% BSA, 0.2 mM Octyl glucoside, with 1000 μM of AMP final concentration) and incubate for 10 min at room temperature. […] After centrifugation, 75 μL of the mixture was transferred to a new 384-well plate for LC/MS analysis.
Samples from the 384-well plates, were loaded onto an autosampler deck, then injected with ADDA-LC-MS/MS. The aqueous mobile phase is 0.1% formic acid in water. The organic mobile phase is 0.1% formic acid in acetonitrile. Flow rate is maintained at 0.8 mL/minute using Shimadzu pumps. The column is ACE 5 Phenyl, 50×2.1 mm. The analysis was performed on a SCIEX triple quadrupole mass spectrometer operating in positive ion mode. The effluent from the HPLC column was directly introduced into the electrospray ionization (ESI). Multiple reaction monitoring (MRM) is used to determine analyte and internal standard (IS) responses. […] The data is calculated using the peak area ratio (PAR) semi-quantitative method.
Target sequence in this assay (P21589 27-574, species assumed): as the sequence (P21589 27-574) above

[4] = tested on: CD8+ T cells; assay: T cell proliferation assay, CD8+ T cells; conditions: read-out: CD8+ T cell proliferation EC50; rescue of proliferation under high AMP condition (200 μM AMP), 72 hours
Method: (§1) The purpose of this assay is to characterize the potency of inhibitors of CD73 in rescuing adenosine-mediated inhibition of T cell proliferation. CD4+ or CD8+ T cells were isolated from peripheral blood mononuclear cells (PBMCs, HemaCare) by immunomagnetic negative selection using EasySep™ Isolation Kit ([sequence] Technologies) following the supplier's protocol. CD4+ or CD8+ T cells were pelleted by centrifugation at 300 gravitational force (g) for 5 minutes at room temperature and re-suspended in PBS. CellTrace™ Violet staining solution (Invitrogen) was added at 1:5,000 and incubated at 37° C. for 20 minutes, protected from light. […] Cells were then pelleted by centrifugation at 300 g for 5 minutes at room temperature and re-suspended in fresh, pre-warmed complete culture medium. 50 μL of cells were seeded per well in 96 well u-bottom plates. 50 μL of CD3/CD28 beads-containing medium and 50 μL of media containing compounds were added into cells. 50 μL of media containing AMP and EHNA hydrochloride (Sigma-Aldrich) was added into cells at 200 μM and 5 μM final concentration, respectively. Cells were incubated for 72 hours at 37° C. in a 5% CO2 incubator. 200 μL of PBS was then added to each well and cells were centrifuged at 300 g, 4° C. for 10 minutes. […] The supernatant was discarded and cells were re-suspended in 60 μL of cell staining buffer and analyzed on a flow cytometer.

[5] = tested on: CD4+ T cells; assay: T cell proliferation assay, CD4+ T cells; conditions: read-out: CD4+ T cell proliferation EC50; rescue of proliferation under high AMP condition (200 μM AMP), 72 hours
Method: as §1

CL (h) [1] [mL/min/kg] | IC50 [2] [nM] | IC50 [3] [nM] | Compound | EC50 [4] [nM] | EC50 [5] [nM]
9.3 | 1.6 | 0.25 | C[C@@H](c1ccccc1)N(C)c1nn(C)c2nnc(-c3c[nH]c(=O)[nH]c3=O)cc12 [Example 38, 5-[1-methyl-3-[methyl-[(1S)-1-phenylethyl]amino]pyrazolo[3,4-c]pyridazin-5-yl]-1H-pyrimidine-2,4-dione] |  | 
6.15 | 3.4 | 0.38 | Cn1nc(O[C@H](c2ccccn2)C(F)(F)F)c2cc(-c3c[nH]c(=O)[nH]c3=O)nnc21 [Example 29A, 5-[1-methyl-3-[(1R)-2,2,2-trifluoro-1-(2-pyridyl)ethoxy]pyrazolo[3,4-c]pyridazin-5-yl]-1H-pyrimidine-2,4-dione] |  | 
 | 10.4 | 2 | O=c1[nH]cc(-c2cc3c(C4CCC4)noc3nn2)c(=O)[nH]1 [Example 46, 5-(3-cyclobutylisoxazolo[5,4-c]pyridazin-5-yl)-1H-pyrimidine-2,4-dione] |  | 
6.32 | 4.6 | 0.65 | Cc1nc(C(C)Oc2nn(C)c3nnc(-c4c[nH]c(=O)[nH]c4=O)cc23)cs1 (centres unmarked) [Example 21, 5-[1-methyl-3-[1-(2-methylthiazol-4-yl)ethoxy]pyrazolo[3,4-c]pyridazin-5-yl]-1H-pyrimidine-2,4-dione] |  | 
6.15 |  |  | C[C@H](Oc1nn(C)c2nnc(-c3c[nH]c(=O)[nH]c3=O)cc12)c1ccccc1 [Example 27, 5-[1-methyl-3-[(1S)-1-phenylethoxy]pyrazolo[3,4-c]pyridazin-5-yl]-1H-pyrimidine-2,4-dione] | 3.84 | 4.3
8.52 | 10.2 | 0.89 | Cn1nc(C2CC2)c2cc(-c3c[nH]c(=O)[nH]c3=O)nnc21 [Example 2, 5-(3-cyclopropyl-1-methyl-pyrazolo[3,4-c]pyridazin-5-yl)-1H-pyrimidine-2,4-dione] |  | 
6.26 | 19.6 |  | CC(Oc1nn(C)c2nnc(-c3c[nH]c(=O)[nH]c3=O)cc12)c1ccnn1C (centres unmarked) [Example 24, 5-[1-methyl-3-[1-(2-methylpyrazol-3-yl)ethoxy]pyrazolo[3,4-c]pyridazin-5-yl]-1H-pyrimidine-2,4-dione] |  | 
6.15 | 3.7 |  | C[C@H](Oc1nn(C)c2nnc(-c3c[nH]c(=O)[nH]c3=O)cc12)c1ccc(F)cn1 [Example 43, 5-[3-[(1S)-1-(5-fluoro-2-pyridyl)ethoxy]-1-methyl-pyrazolo[3,4-c]pyridazin-5-yl]-1H-pyrimidine-2,4-dione] |  | 
6.15 | 3.4 |  | CC(Oc1nn(C)c2nnc(-c3c[nH]c(=O)[nH]c3=O)cc12)c1ccc(C#N)cc1 (centres unmarked) [Example 12, 4-[1-[5-(2,4-dioxo-1H-pyrimidin-5-yl)-1-methyl-pyrazolo[3,4-c]pyridazin-3-yl]oxyethyl]benzonitrile] |  | 
6.15 | 1.6 | 0.15 | Cn1nc(O[C@H](c2ccccc2)C(F)(F)F)c2cc(-c3c[nH]c(=O)[nH]c3=O)nnc21 [Example 30A, 5-[1-methyl-3-[(1R)-2,2,2-trifluoro-1-phenyl-ethoxy]pyrazolo[3,4-c]pyridazin-5-yl]-1H-pyrimidine-2,4-dione] |  | 
7.84 | 5.5 |  | CC(Oc1nn(C)c2nnc(-c3c[nH]c(=O)[nH]c3=O)cc12)c1ccccc1Cl (centres unmarked) [Example 13, 5-[3-[1-(2-chlorophenyl)ethoxy]-1-methyl-pyrazolo[3,4-c]pyridazin-5-yl]-1H-pyrimidine-2,4-dione] |  | 
6.22 | 4.3 |  | CC(Oc1nn(C)c2nnc(-c3c[nH]c(=O)[nH]c3=O)cc12)c1cccnc1 (centres unmarked) [Example 18, 5-[1-methyl-3-[1-(3-pyridyl)ethoxy]pyrazolo[3,4-c]pyridazin-5-yl]-1H-pyrimidine-2,4-dione] |  | 
6.15 | 46.7 |  | Cn1nc(Cl)c2nnc(-c3c[nH]c(=O)[nH]c3=O)cc21 [Example 9, 5-(3-chloro-1-methyl-pyrazolo[4,3-c]pyridazin-6-yl)-1H-pyrimidine-2,4-dione] |  | 
 | 13.3 | 3.88 | CC(C)Oc1nn(C)c2nnc(-c3c[nH]c(=O)[nH]c3=O)cc12 [Example 8, 5-(3-isopropoxy-1-methyl-pyrazolo[3,4-c]pyridazin-5-yl)-1H-pyrimidine-2,4-dione] |  | 
6.15 | 4.1 |  | CC(Oc1nn(C)c2nnc(-c3c[nH]c(=O)[nH]c3=O)cc12)c1ccc(Cl)cc1 (centres unmarked) [Example 15, 5-[3-[1-(4-chlorophenyl)ethoxy]-1-methyl-pyrazolo[3,4-c]pyridazin-5-yl]-1H-pyrimidine-2,4-dione] |  | 
9.85 | 11.4 | 1.94 | Cn1nc(-c2ccnn2Cc2ccccc2)c2cc(-c3c[nH]c(=O)[nH]c3=O)nnc21 [Example 7, 5-[3-(2-benzylpyrazol-3-yl)-1-methyl-pyrazolo[3,4-c]pyridazin-5-yl]-1H-pyrimidine-2,4-dione] |  | 
6.15 | 2.9 |  | CC(Oc1nn(C)c2nnc(-c3c[nH]c(=O)[nH]c3=O)cc12)c1cccc(C#N)c1 (centres unmarked) [Example 11, 3-[1-[5-(2,4-dioxo-1H-pyrimidin-5-yl)-1-methyl-pyrazolo[3,4-c]pyridazin-3-yl]oxyethyl]benzonitrile] |  | 
6.15 | 2.7 | 0.33 | C[C@H](Oc1nn(C)c2nnc(-c3c[nH]c(=O)[nH]c3=O)cc12)c1ccccn1 [Example 26, 5-[1-methyl-3-[(1S)-1-(2-pyridyl)ethoxy]pyrazolo[3,4-c]pyridazin-5-yl]-1H-pyrimidine-2,4-dione] | 3.9 | 5.6
6.15 | 2.3 |  | C[C@H](Oc1nn(C)c2nnc(-c3c[nH]c(=O)[nH]c3=O)cc12)c1cccc(Cl)n1 [Example 44, 5-[3-[(1S)-1-(6-chloro-2-pyridyl)ethoxy]-1-methyl-pyrazolo[3,4-c]pyridazin-5-yl]-1H-pyrimidine-2,4-dione] |  | 
6.15 | 8.6 | 2.23 | CN(c1nn(C)c2nnc(-c3c[nH]c(=O)[nH]c3=O)cc12)C1CCCC1 [Example 36, 5-[3-[cyclopentyl(methyl)amino]-1-methyl-pyrazolo[3,4-c]pyridazin-5-yl]-1H-pyrimidine-2,4-dione] |  | 
6.15 | 3.5 | 0.7 | Cn1nc(C2CCC2)c2cc(-c3c[nH]c(=O)[nH]c3=O)nnc21 [Example 39, 5-(3-cyclobutyl-1-methyl-pyrazolo[3,4-c]pyridazin-5-yl)-1H-pyrimidine-2,4-dione] |  | 
6.15 | 4 |  | C[C@H](Nc1nn(C)c2nnc(-c3c[nH]c(=O)[nH]c3=O)cc12)c1ccccc1 [Example 37, 5-[1-methyl-3-[[(1S)-1-phenylethyl]amino]pyrazolo[3,4-c]pyridazin-5-yl]-1H-pyrimidine-2,4-dione] |  | 
